Values after ≈ are worked out from the molar mass of the structure shown.
Columns and labels:
[1] = test system: SF-268 (CNS) cancer cell line; assay: In vitro growth inhibition (SRB), SF-268; type: cell-based, human; conditions: 48 hours; for GI50: Homo sapiens
Method: (§1) Newly prepared compounds were evaluated for cytotoxic activity against a variety of cell lines derived from human tumors using an assay system similar to the National Cancer Institute procedure previously described (Monks et al, J. Natl. Cancer Inst., 1991). Briefly, the cell suspensions, diluted according to the particular cell type and the expected target cell density (5,000-40,000 cells per well based on cell growth characteristics), were added by pipet (100 μl) to 96-well microtiter plates. Inoculates were allowed a preincubation time of 24-28 hours at 37° C. for stabilization. Incubation with the inhibitor compounds lasted for 48 hours in 5% CO2 atmosphere and 100% humidity. Determination of cell growth was performed by in situ fixation of cells, followed by staining with a protein-binding dye sulforhodamine B (SRB), which binds to the basic amino acids of cellular macromolecules. The solubilized stain was measured spectrophotometrically.
(§2) Several compounds were evaluated for cytotoxic activity against […] P388 leukemia cell lines. The effective dose or ED50 value (defined as the effective dosage required to inhibit 50% of cell growth) was measured. These and additional compounds were evaluated in terms of growth inhibitory activity against several other human cancer cell lines including: central nervous system (“CNS”, SF-268), pancreas (BXPC-3), non-small cell lung cancer (“lung-NSC”, NCI-H460), breast (MCF-7), colon (KM20L2), ovarian (OVCAR-3), and prostate (DU-145). The growth inhibition GI50 (defined as the dosage required to inhibit tumor cell growth by 50%) is listed for each cell line.

[2] = test system: KM20L2 (colon) cancer cell line; assay: In vitro growth inhibition (SRB), KM20L2; type: cell-based, human; conditions: for GI50: Homo sapiens, KM-20L2, 48 hours
Method: as §1, §2

P388 leukemia cell lines = assay: In vitro cytotoxicity (SRB) against P388 leukemia cell line; type: cell-based, mouse; conditions: 48 hours incubation
Method: as §1
Several compounds were evaluated for cytotoxic activity against […] P388 leukemia cell lines. […] These and additional compounds were evaluated in terms of growth inhibitory activity against several other human cancer cell lines including: central nervous system (“CNS”, SF-268), pancreas (BXPC-3), non-small cell lung cancer (“lung-NSC”, NCI-H460), breast (MCF-7), colon (KM20L2), ovarian (OVCAR-3), and prostate (DU-145). […]

[3] = test system: NCI-H460 (lung-NSC) cancer cell line; assay: In vitro growth inhibition (SRB), NCI-H460; type: cell-based, human; conditions: 48 hours; for GI50: Homo sapiens
Method: as §1, §2

[4] = test system: MCF-7 (breast) cancer cell line; assay: In vitro growth inhibition (SRB), MCF-7; type: cell-based, human; conditions: for GI50: Homo sapiens, MCF7, 48 hours
Method: as §1, §2

[5] = test system: BXPC-3 (pancreas) cancer cell line; assay: In vitro growth inhibition (SRB), BXPC-3; type: cell-based, human; conditions: 48 hours; for GI50: Homo sapiens
Method: as §1, §2

[6] = test system: DU-145 (prostate) cancer cell line; assay: In vitro growth inhibition (SRB), DU-145; type: cell-based, human; conditions: 48 hours; for GI50: Homo sapiens
Method: as §1, §2

[7] = test system: MHEC-5T hemangioendothelioma tumor; assay: Inhibition of tumor blood flow, Fluorescent Bead Assay; type: in vivo, SCID mice; conditions: 24 hours post-treatment, vessel area per tumor tissue area as percentage of control
Method: The antivascular effects of the chromene phosphate prodrug were assessed in tumor-bearing mice using a Fluorescent Bead Assay. A MHEC-5T hemangioendothelioma tumor model was established by subcutaneous injection of 0.5×10^6 cultured transformed cell murine myocardial vascular endothelial cell line (“MHEC5-T”) cells into the right flank of Fox Chase CB-17 Severe Combined Immunodeficient (“SCID”) mice. […] At 24 hours post-treatment, mice were injected intravenously with 0.25 ml of diluted FluoSphere beads (1:6 in physiological saline) in the tail vein, sacrificed after 3 minutes, and tumor was excised for cryosectioning. Tumor cryosections at a thickness of 8 um were directly examined using quantitative fluorescent microscopy. Blood vessels were indicated by blue fluorescence from injected beads. For quantification, image analysis of 3 sections from three tumors treated in each group were examined and vascular shutdown was expressed as vessel area (mm^2) per tumor tissue area (mm^2) as a percentage of the control (“% VAPM”).

purified tubulin = assay: In vitro inhibition of tubulin polymerization; type: biochemical; conditions: purified bovine brain tubulin 1.5 mg/ml, 15 min preincubation at 37° C., GTP-induced, 350 nm
Method: IC50 values for tubulin polymerization were determined according to a previously described procedure (Bai et al., Cancer Research, 1996). Purified tubulin is obtained from bovine brain cells as previously described (Hamel and Lin, Biochemistry, 1984). Various amounts of inhibitor were preincubated for 15 minutes at 37° C. with purified tubulin. After the incubation period, the reaction was cooled and GTP was added to induce tubulin polymerization. Polymerization was then monitored in a Gilford spectrophotometer at 350 nm. The final reaction mixtures (0.25 ml) contained 1.5 mg/ml tubulin, 0.6 mg/ml microtubule-associated proteins (MAPs), 0.5 mM GTP, […], 4% DMSO and 0.1M 4-morpholineethanesulfonate buffer (MES, pH 6.4). IC50 is the amount of inhibitor needed to inhibit tubulin polymerization 50% with respect to the amount of […] that occurs in the absence of inhibitor.

Molecule	GI50 for Cell Line SF-268 [1] [mg/L]	GI50 for Cell Line KM20L2 ([2]; 48 hours) [mg/L]	ED50 for P-388 Cell Line (P388 leukemia cell lines) [mg/L]	GI50 for Cell Line NCI-H460 [3] [mg/L]	GI50 for Cell Line MCF-7 ([4]; 48 hours) [mg/L]	GI50 for Cell Line BXPC-3 [5] [mg/L]	GI50 for Cell Line DU-145 [6] [mg/L]	% VAPM at 10 mg/kg dose ([7]; 10 mg/kg single i.p. dose) [%]	% VAPM at 100 mg/kg dose ([7]; 100 mg/kg single i.p. dose) [%]	GI50 [1] [mg/L]	GI50 [2] [mg/L]	GI50 [3] [mg/L]	GI50 [4] [mg/L]	GI50 [5] [mg/L]	GI50 [6] [mg/L]	IC50 (purified tubulin) [µM]
3-(3′,4′,5′-Trimethoxybezoyl)-7-methoxy-2H-chromene-phosphate salt [Compound 7]	0.034	3.5	0.173	0.14	0.056	0.44	0.18	57	33							
COc1ccc2c(c1O)OCC(C(=O)c1cc(OC)c(OC)c(OC)c1)=C2 [Compound 5, 3-(3′,4′,5′-Trimethoxybezoyl)-7-methoxy-8-hydroxy-2H-chromene]										0.022 (≈ 0.0591 µM)	3.2 (≈ 8.59 µM)	0.46 (≈ 1.24 µM)	0.0055 (≈ 0.0148 µM)	3.5 (≈ 9.4 µM)	0.049 (≈ 0.132 µM)	
COc1ccc2c(c1)OCC(C(=O)c1cc(OC)c(OC)c(OC)c1)=C2 [Compound 8, 3-(3′, 4′, 5′-Trimethoxybenzoyl)-7-methoxy-2H-chromene]										0.32 (≈ 0.898 µM)	0.47 (≈ 1.32 µM)	0.3 (≈ 0.842 µM)	0.3 (≈ 0.842 µM)	0.27 (≈ 0.758 µM)	0.26 (≈ 0.73 µM)	
COc1cc2c(cc1O)C=C(C(=O)c1cc(OC)c(OC)c(OC)c1)CO2 [Compound 9, 3-(3′, 4′, 5′-Trimethoxybenzoyl)-6-hydroxy-7-methoxy-2H-chromene]			0.25							0.45 (≈ 1.21 µM)	2.3 (≈ 6.18 µM)	0.32 (≈ 0.859 µM)	0.069 (≈ 0.185 µM)	0.27 (≈ 0.725 µM)	0.16 (≈ 0.43 µM)	1 to 4

— US20050245489A1, “Chromene-containing compounds with anti-tubulin and vascular targeting activity” (priority 2004, published 2005)
